Measurements: ChEMBL document CHEMBL4346677, “Compounds based on 5-(perylen-3-ylethynyl)uracil scaffold: High activity against tick-borne encephalitis virus and non-specific activity against enterovirus A” (Eur J Med Chem, 2019)
The source made the active and inactive calls. The rule behind the calls is not given here.

Experiments:
[1] = Cytotoxicity against PEK cells assessed as reduction in cell viability after 7 days by microscopic method; assay type: cell-based, Sus scrofa; conditions: pig
[2] = Cytotoxicity against African green monkey Vero cells assessed as reduction in cell viability after 24 hrs by microscopic method; assay type: cell-based; conditions: chlorocebus sabaeus
Poliovirus 1 = experiment: Antiviral activity against poliovirus type 1 sabin 1; assay type: functional, organism-based
[3] = Cytotoxicity against PEK cells assessed as reduction in cell viability after 24 hrs by microscopic method; assay type: cell-based, Sus scrofa; conditions: pig
[4] = Cytotoxicity against African green monkey Vero cells assessed as reduction in cell viability after 7 days by microscopic method; assay type: cell-based; conditions: chlorocebus sabaeus
[5] = system: Tick-borne encephalitis virus; experiment: Antiviral activity against TBEV Absettarov infected in PEK cells assessed as plaque reduction preincubated for 1 hr followed by overlaying with 1.26% methylcellulose and measured after 6 days by gentian violet staining-based assay; assay type: functional, organism-based
Vero [6] = experiment: Cytotoxicity against African green monkey Vero cells assessed as formation of syncytium-like patterns of cells at 50 uM after 7 days by microscopic method; assay type: cell-based; conditions: chlorocebus sabaeus, 168 h
Echovirus = experiment: Antiviral activity against Echovirus 30 isolate 48461; assay type: functional, organism-based
[7] = Cytotoxicity against PEK cells assessed as formation of syncytium-like patterns of cells at 50 uM after 7 days by microscopic method; assay type: cell-based, Sus scrofa; conditions: pig, 168 h
Enterovirus A71 = experiment: Antiviral activity against Enterovirus A71 isolate 46973 infected in human RD cells assessed as reduction in virus induced cytopathic effect preincubated with viral suspension for 1 hr followed by cell addition measured after 5 to 7 days; assay type: functional, organism-based; conditions: Enterovirus A, isolate 46973, RD; read-out: EC50
[8] = Cytotoxicity against human RD cells assessed as reduction in cell viability after 24 hrs by microscopic method; assay type: cell-based
RD [9] = experiment: Cytotoxicity against human RD cells assessed as formation of syncytium-like patterns of cells at 50 uM after 7 days by microscopic method; assay type: cell-based; conditions: 168 h
[10] = Cytotoxicity against human RD cells assessed as reduction in cell viability after 7 days by microscopic method; assay type: cell-based
RD [11] = experiment: Cytotoxicity against human RD cells assessed as reduction in metabolic activity at >20 uM after 24 hrs by CellTiter-Blue assay; assay type: ADME, cell-based
[12] = Cytotoxicity against PEK cells assessed as reduction in metabolic activity at >20 uM after 24 hrs by CellTiter-Blue assay; assay type: ADME, cell-based, Sus scrofa; conditions: pig
Vero [13] = experiment: Cytotoxicity against African green monkey Vero cells assessed as reduction in metabolic activity at >20 uM after 24 hrs by CellTiter-Blue assay; assay type: ADME, cell-based; conditions: chlorocebus sabaeus
[14] = Selectivity index, ratio of CC50 for MDCK cells to EC50 for H1N1 infected in MDCK cells; assay type: toxicity, cell-based; conditions: dog, read-out: Ratio CC50/EC50
[15] = Selectivity index, ratio of CC50 for African green monkey Vero cells to EC50 for VSV infected in Vero cells; assay type: toxicity, cell-based; conditions: read-out: Ratio CC50/EC50
Human alphaherpesvirus 1 = experiment: Antiviral activity against HSV-1 infected in African green monkey Vero cells preincubated with virus for 5 mins; assay type: functional, organism-based; conditions: Human alphaherpesvirus 1, Vero
[16] = system: Vesicular stomatitis virus; experiment: Antiviral activity against VSV infected in African green monkey Vero cells assessed as plaque reduction preincubated for 10 mins inocula removed after 1 hr followed by overlaying with 2% methylcellulose and measured after 1 to 2 days by crystal violet staining based assay; assay type: functional, organism-based
Murid betaherpesvirus 1 = experiment: Antiviral activity against mCMV infected in mouse NIH3T3 cells assessed as reduction in virus induced cytopathogenicity; assay type: functional, organism-based; conditions: Murid betaherpesvirus 1, NIH3T3
Influenza A virus [17] = experiment: Antiviral activity against influenza A virus H1N1 infected in dog MDCK cells assessed as plaque reduction preincubated for 10 mins inocula removed after 1 hr followed by overlaying with 0.8% agarose and measured after 1 to 2 days by crystal violet staining based assay; assay type: functional, organism-based
[18] = Selectivity index, ratio of CC50 for mouse NIH3T3 cells to EC50 for mCMV infected in NIH3T3 cells; assay type: toxicity, cell-based; conditions: read-out: Ratio CC50/EC50
Human alphaherpesvirus 2 = experiment: Antiviral activity against HSV-2 infected in African green monkey Vero cells assessed as plaque reduction preincubated for 10 mins inocula removed after 1 hr followed by overlaying with 2% methylcellulose and measured after 1 to 2 days by crystal violet staining based assay; assay type: functional, organism-based; conditions: Human alphaherpesvirus 2, Vero
[19] = Selectivity index, ratio of CC50 for human Huh7.5 cells to EC50 for HCV JFH1 infected in Huh7.5 cells; assay type: toxicity, cell-based; conditions: read-out: Ratio CC50/EC50
[20] = Selectivity index, ratio of CC50 for African green monkey Vero cells to EC50 for HSV-2 infected in Vero cells; assay type: toxicity, cell-based; conditions: read-out: Ratio CC50/EC50
Sindbis virus = experiment: Antiviral activity against Sindbis virus infected in African green monkey Vero cells assessed as plaque reduction preincubated for 10 mins inocula removed after 1 hr followed by overlaying with 2% methylcellulose and measured after 1 to 2 days by crystal violet staining based assay; assay type: functional, organism-based
Hepatitis C virus = experiment: Antiviral activity against HCV JFH1 infected in human Huh7.5 cells assessed as NS3 expression by western blot analysis; assay type: functional, organism-based, Hepacivirus hominis; conditions: JFH1, Huh7.5
[21] = Selectivity index, ratio of CC50 for African green monkey Vero cells to EC50 for HSV-1 infected in Vero cells; assay type: toxicity, cell-based; conditions: read-out: Ratio CC50/EC50
[22] = Selectivity index, ratio of CC50 for African green monkey Vero cells to EC50 for Sindbis infected in Vero cells; assay type: toxicity, cell-based; conditions: read-out: Ratio CC50/EC50
Influenza A virus [23] = experiment: Antiviral activity against influenza A virus H3N2 infected in dog MDCK cells assessed as plaque reduction preincubated for 10 mins inocula removed after 1 hr followed by overlaying with 0.8% agarose and measured after 1 to 2 days by crystal violet staining based assay; assay type: functional, organism-based
[24] = Selectivity index, ratio of CC50 for MDCK cells to EC50 for H3N2 infected in MDCK cells; assay type: toxicity, cell-based; conditions: dog, read-out: Ratio CC50/EC50

Row | SMILES | CC50 at 168 h [1] [nM] | CC50 at 24 h [2] [nM] | Activity (Poliovirus 1) | CC50 at 24 h [3] [nM] | CC50 at 168 h [4] [nM] | EC50 [5] [nM] | Activity (Vero [6]) | Activity (Echovirus) | Activity [7] | EC50 (Enterovirus A71) [nM] | CC50 at 24 h [8] [nM] | Activity (RD [9]) | CC50 at 168 h [10] [nM] | Activity (RD [11]) | Activity [12] | Activity (Vero [13]) | selectivity ratio [14] | selectivity ratio [15] | EC50 (Human alphaherpesvirus 1) [nM] | EC50 [16] [nM] | also measured
1 | CC(C)(CO)[C@@H](O)CNC(=O)Cn1cc(C#Cc2ccc3c4cccc5cccc(c6cccc2c63)c54)c(=O)[nH]c1=O | > 50000 | 38000 | inactive | > 50000 | > 50000 | 19 | Toxic | inactive | Toxic | 108000 | 76000 | Toxic | 76000 | Toxic | Non-Toxic | Non-Toxic |  |  |  |  | 
2 | O=C(Cn1cc(C#Cc2ccc3c4cccc5cccc(c6cccc2c63)c54)c(=O)[nH]c1=O)NCCCCO | > 50000 | > 50000 | inactive | > 50000 | > 50000 | 20 | Toxic | inactive | Toxic | 56000 | 76000 | Toxic | 81000 | Toxic | Non-Toxic | Non-Toxic |  |  |  |  | 
3 | O=c1[nH]c(=O)n([C@@H]2O[C@H](CO)[C@@H](O)[C@@H]2O)cc1C#Cc1ccc2c3cccc4cccc(c5cccc1c52)c43 | > 50000 |  | inactive | > 50000 |  | 21 | Toxic | inactive | Toxic |  |  | Toxic |  |  |  |  | > 3000 | > 3000 | 2 to 283 | 2 to 283 | EC50 (Murid betaherpesvirus 1): 2 to 283 nM; EC50 (Influenza A virus [17]): 2 to 283 nM; selectivity ratio [18]: > 3000; EC50 (Human alphaherpesvirus 2): 2 to 283 nM; selectivity ratio [19]: > 3000; selectivity ratio [20]: > 3000; EC50 (Sindbis virus): 2 to 283 nM; EC50 (Hepatitis C virus): 2 to 283 nM; selectivity ratio [21]: > 3000; selectivity ratio [22]: > 3000; EC50 (Influenza A virus [23]): 2 to 283 nM; selectivity ratio [24]: > 3000
4 | O=c1[nH]c(=O)n([C@H]2C[C@H](O)[C@@H](CO)O2)cc1C#Cc1ccc2c3cccc4cccc(c5cccc1c52)c43 |  |  |  |  |  |  |  |  |  |  |  |  |  |  |  |  | > 3000 | > 3000 | 48 | 2 to 283 | EC50 (Murid betaherpesvirus 1): 2 to 283 nM; EC50 (Influenza A virus [17]): 2 to 283 nM; selectivity ratio [18]: > 3000; EC50 (Human alphaherpesvirus 2): 2 to 283 nM; selectivity ratio [19]: > 3000; selectivity ratio [20]: > 3000; EC50 (Sindbis virus): 2 to 283 nM; EC50 (Hepatitis C virus): 2 to 283 nM; selectivity ratio [21]: > 3000; selectivity ratio [22]: > 3000; EC50 (Influenza A virus [23]): 2 to 283 nM; selectivity ratio [24]: > 3000
